Consider one compound from PMC11087509, “Multimodal binding and inhibition of bacterial ribosomes by the antimicrobial peptides Api137 and Api88” (Nature Communications, 2024).

One assay has as its target T1, 50S subunit (Escherichia coli, UniProt P0A7M6+P0ADZ0+P60723+P61175).
T1 construct: Ribosomes were isolated from the E. coli strain MRE600; made in house; native subunits isolated in house
The assay can be described thus: Fluorescence polarization binding, 50S subunit. Further details: species or system E. coli. The procedure:
Several hundred grams of log-phase cells were commercially produced and purchased. Cells were washed in buffer A (20 mmol/L HEPES (pH 7.6), 6 mmol/L MgAc2, 30 mmol/L AcOK, 4 mmol/L ß-mercaptoethanol) and lysed in an M-110L microfluidizer (Microfluidics) at 17,000 psi and 4 °C. Cell debris was removed by low-speed centrifugation (15,000× g, 10 min, 4 °C) to obtain S30 lysate. Crude ribosomes, mostly containing 70S ribosomes, were pelleted by ultracentrifugation (40,000× g, 17 h, 4 °C) and resuspended in buffer A. The 70S ribosomes were separated from 30S and 50S subunits by zonal ultracentrifugation (Beckman Ti-15; 6–40% sucrose gradient in buffer A, 44,000× g, 16 h, 4 °C). The 70S-containing fractions were collected, and the ribosomes were sedimented by ultracentrifugation (40,000× g, 17 h, 4 °C). Since these 70S ribosomes still contained tRNAs and mRNA, they were resuspended in buffer B (20 mmol/L HEPES (pH 7.6), 1 mmol/L MgAc2, 0.2 mol/L NH4Ac, 4 mmol/L ß-mercaptoethanol), which allows for dissociation into 30S and 50S subunits, and subjected to a second zonal centrifugation (Beckman Ti-15, 44,000× g, 16 h, 4 °C), but this time in a 6–40% sucrose gradient prepared in buffer B. Fractions containing 30S and 50S subunits were collected, sedimented by ultracentrifugation (40,000× g, 17 h, 4 °C), resuspended in buffer A, aliquoted, shock-frozen in liquid nitrogen, and stored at −80 °C.
Dissociation constants (Kd) were determined using purified 70S ribosome, 50S or 30S subunit and cf-labeled peptides in ribosome preparation buffer. Briefly, black 384-well plates (flat bottom, 781209, Greiner Bio-One GmbH) were blocked with casein (0.5%, w/v) in PBS containing 0.05% (v/v) Tween 20 at 4 °C overnight and washed three times with phosphate buffer. A 2-fold dilution series (22 steps) of pure 70S ribosome, 50S or 30S subunit (10 μL per well) in ribosome preparation buffer was prepared in a black 384-well plate. The cf-labeled peptide was dissolved in ribosome preparation buffer (10 μL, 40 nmol/L), added to each well, centrifuged (500 x g, 2 min), and incubated at 28 ± 1 °C for 90 min. Fluorescence polarization was measured on a […]^TM microplate reader (Beckman Coulter, Krefeld, Germany) in the top reading position (λexc = 485 nm, λem = 535 nm). Data were fitted to a nonlinear dose-response logistic transition equation [y = y0 + a/(1 + (x/x0)b)] using the Levenberg-Marquardt algorithm, with Kd represented by the x0 coefficients (GraphPad Prism for Windows v. 10.1.2, San Diego, CA, USA).
For orientation: In fluorescence polarisation assays a small probe gives low polarisation when free and higher when bound to something large.

For the next assay, the system named is Gram-negative bacteria. The settings on record: cited from earlier work. The text has this: Here we have focused on two structurally modified versions of apidaecin 1b ([…]), which was originally isolated from the western honeybee (Apis mellifera).
Assay [1] concerns ribosome (arrest at UAG stop codon of model yrbA ORF). The assay can be described thus: In vitro toeprinting analysis (yrbA-fs15 template, TAG stop codon). The assay is classed as biochemical. The settings on record: 50 µmol/L; gel, one of two replicates. The procedure:
Toeprinting experiments using the yrbA-fs15 DNA template with a TAG stop codon were performed in the NEB classic PURExpress system (New England Biolabs)[21] as described above. The template was prepared by PCR[21] by combining the overlapping primers T7, T7-IR-AUG, IR-yrbA-fs15-RF1 (for TAG), post-NV1, and NV1, rendering the sequence:
[…](TAG)[…] (ORF sequence is underlined). The peptides Api137 and Api88 were added from stock solutions in water to a final concentration of 50 µM.

For another assay, the target named is recombinant TF. The settings on record: fluorescence polarization; cited from earlier work. An excerpt:
Binding sites two and three are close to uL23 and uL29, which is also supported by Api88(Y7B) cross-links. These ribosomal proteins are located adjacent to the PET exit and are binding hubs for the molecular chaperone trigger factor (TF)[34] and the signal recognition particle (SRP), a universally conserved and essential cellular machinery that directs proteins destined for membrane integration to the plasma membrane[35],[36]. This co-translational targeting is initiated by a hydrophobic signal sequence in the nascent protein chain recognized by SRP as it exits the PET. It is appealing to hypo ...

The subject of another assay is 30S subunit. The assay can be described thus: Fluorescence polarization binding, 30S subunit. Further details: species or system E. coli. The settings on record: ratio 30S / 50S; cf-labeled. Here is the method:
Several hundred grams of log-phase cells were commercially produced and purchased. Cells were washed in buffer A (20 mmol/L HEPES (pH 7.6), 6 mmol/L MgAc2, 30 mmol/L AcOK, 4 mmol/L ß-mercaptoethanol) and lysed in an M-110L microfluidizer (Microfluidics) at 17,000 psi and 4 °C. Cell debris was removed by low-speed centrifugation (15,000× g, 10 min, 4 °C) to obtain S30 lysate. Crude ribosomes, mostly containing 70S ribosomes, were pelleted by ultracentrifugation (40,000× g, 17 h, 4 °C) and resuspended in buffer A. The 70S ribosomes were separated from 30S and 50S subunits by zonal ultracentrifugation (Beckman Ti-15; 6–40% sucrose gradient in buffer A, 44,000× g, 16 h, 4 °C). The 70S-containing fractions were collected, and the ribosomes were sedimented by ultracentrifugation (40,000× g, 17 h, 4 °C). […]
Dissociation constants (Kd) were determined using purified 70S ribosome, 50S or 30S subunit and cf-labeled peptides in ribosome preparation buffer. […] Fluorescence polarization was measured on a […]^TM microplate reader (Beckman Coulter, Krefeld, Germany) in the top reading position (λexc = 485 nm, λem = 535 nm). […]

Where a SMILES comes first, the peptide text is derived from it. The star is where a group is joined. Orn(α-tetramethylguanidino) = CN(C)C(=N[C@@H](CCCN)C(=O)*)N(C)C Bounds are passed on as bounds.

Take `CC[C@H](C)[C@H](NC(=O)[C@H](Cc1ccc(O)cc1)NC(=O)[C@@H](NC(=O)[C@@H]1CCCN1C(=O)[C@H](CCCNC(=N)N)NC(=O)[C@H](CC(N)=O)NC(=O)[C@H](CC(N)=O)NC(=O)[C@H](CCCN)N=C(N(C)C)N(C)C)C(C)C)C(=O)N1CCC[C@H]1C(=O)N[C@@H](CCCNC(=N)N)C(=O)N1CCC[C@H]1C(=O)N[C@@H](CCCNC(=N)N)C(=O)N1CCC[C@H]1C(=O)N1CCC[C@H]1C(=O)N[C@@H](Cc1c[nH]cn1)C(=O)N1CCC[C@H]1C(=O)N[C@@H](CCCNC(=N)N)C(=O)N[C@@H](CC(C)C)C(=O)O` [Api137] ({Orn(α-tetramethylguanidino)}-NNRPVYIPRPRPPHPRL-OH): the Kd at 50S subunit (apparent Kd, cf-labeled PrAMP (10 μL, 40 nmol/L), ribosome preparation buffer pH 7.6, 28 °C, 90 min, mean of triplicates) was 2.18 ± 0.11 µM; at recombinant TF, > 100 µM. Moreover, the “Kd for 50S subunit lower than for 70S ribosome” value at 50S subunit (ratio 70S / 50S, cf-labeled) is “two-”. The “antimicrobial activity (Api137 and Api88 compared)” value with Gram-negative bacteria (Api137 and Api88) is “comparable level of antimicrobial activity”. Further, the antibacterial activity result with Gram-negative bacteria (against Gram-negative bacteria) is reported as “enhanced antibacterial activity”. In addition, in assay [1], the “toeprinting band at the UAG stop codon” value was “intense toeprinting band”. Moreover, the “binding to 30S subunit weaker compared to 50S subunit” value in the assay on 30S subunit was ~10 fold.
